Reference: patent publication US20250145715A1, “B7-H3 TARGETING FUSION PROTEINS AND METHODS OF USE THEREOF” (GT Biopharma, Inc., priority 2021, published 2025)

Columns and labels:
[1] = system: LNCaP prostate cancer cells; assay: NK cell CD107a / IFNγ flow cytometry against LNCaP; type: cell-based, human; details: normal donor and prostate cancer patient NK cells, vs controls
Source text: FIG. 15A is a graph showing pooled analysis of proportion of NK cells from healthy donors or prostate cancer patients expressing CD107a+ (top) or IFNγ (bottom) against C4-2 targets (N=9 for healthy donors, N=3 for patients). FIG. 15B is a graph showing pooled analysis of proportion of NK cells from healthy donors or prostate cancer patients expressing CD107a+ (top) or IFNγ (bottom) against DU145 targets (N=9 for healthy donors, N=3 for patients). FIG. 15C is a graph showing pooled analysis of proportion of NK cells from healthy donors or prostate cancer patients expressing CD107a+ (top) or IFNγ (bottom) against LNCaP targets (N=9 for healthy donors, N=3 for patients). FIG. 15D is a graph showing pooled analysis of proportion of NK cells from healthy donors or prostate cancer patients expressing CD107a+ (top) or IFNγ (bottom) against PC3 targets (N=9 for healthy donors, N=3 for patients). * p<0.05, ** p<0.01, *** p<0.001, and **** p<0.0001.
ADCC was measured in a flow cytometry assay by evaluating degranulation via CD107a (lysosomal-associated membrane protein LAMP-1) and intracellular IFNγ production. Upon thawing, normal donor and patient-derived PBMCs or ascites cells were rested overnight (37° C., 5% CO2) in RPMI 1640 media supplemented with 10% fetal calf serum (RPMI-10). […] Samples were washed and evaluated in an LSRII flow cytometer (BD Biosciences, San Jose, CA, USA). […]

[2] = system: OVCAR3 ovarian cancer cells; assay: NK cell CD107a / IFNγ flow cytometry against OVCAR3; type: cell-based, human; details: 30 nM, E:T 2:1, 4 hrs; vs no treatment and rhIL-15 alone
Experimental: Healthy donor or ovarian cancer PBMC cells were incubated with ovarian tumor targets at 2:1 E:T ratio for 4 hrs with 30 nM TriKE or control condition. FIG. 30A is a graph illustrating pooled proportion of NK cells from healthy donors expressing CD107a+ (degranulation) against OVCAR8 targets (N=8). FIG. 30B is a graph illustrating pooled proportion of NK cells from healthy donors expressing IFNγ cytokine production against OVCAR8 targets (N=8). FIG. 30C is a graph illustrating pooled proportion of NK cells from healthy donors expressing CD107a+ (degranulation) against OVCAR3 targets (N=4). […] FIG. 30I is a graph illustrating that tumor killing was evaluated using IncuCyte imaging assay. […] The percentage of Live (Nuclight Red+Caspase 3/7−) tumor cells was quantified over a 48-h period and normalized to tumor alone. Readings were obtained every 15 min (representative of four separate experiments). * p<0.05, ** p<0.01, *** p<0.001, and **** p<0.0001.
ADCC was measured in a flow cytometry assay by evaluating degranulation via CD107a (lysosomal-associated membrane protein LAMP-1) and intracellular IFNγ production. […] Samples were washed and evaluated in an LSRII flow cytometer (BD Biosciences, San Jose, CA, USA).
The ability of cam1615B7-H3 TriKE to mediate NK cell activity against ovarian cancer cells was evaluated. […]

cam1615B7-H3: second-generation TriKE: humanized camelid anti-CD16 VHH, human wild-type IL-15, anti-B7-H3 mAb 376.96 scFv; SEQ ID NO:1
NK cell IFNγ production against LNCaP [1]: enhanced
NK cell degranulation (CD107a) against LNCaP [1]: enhanced
NK cell degranulation against OVCAR3 [2]: robust
NK cell intracellular IFNγ production against OVCAR3 [2]: robust
